Data on 9 molecules can be found in PubChem BioAssay (NCI).

Test systems include UACC-257 melanoma; RPMI-8226 leukemia; SK-MEL-28 melanoma; NCI-H460 lung; A498 renal; UACC-62 melanoma; HT29 colon; 786-0 renal; T-47D breast; SF-539 CNS.
Common to all, as to assay: NCI tumour cell line growth inhibition, 48 h

The structures appear in SMILES notation. Several values for one entry are separate records, joined by “and”; a condition that tells them apart may be missing. Identical values can stand only once.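 Where inhibition never reached the appropriate level, the endpoint shown equals the highest concentration tested. Otherwise, values were interpolated linearly from a five-concentration, 48-hour dose response in 96-well plates. Abbreviation: GI50, concentration required for 50% inhibition of growth. TGI is the concentration that stops growth completely.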

`CCCCCCCCN(CCCCCCCC)CCCCCCNc1cc(OC)cc2cccnc12`: the GI50 with UACC-257 melanoma is 2.2 µM; in the test with RPMI-8226 leukemia, 7.75 µM; in the test with SK-MEL-28 melanoma, 13.6 µM; in the test with NCI-H460 lung, 8.27 µM; in the test with A498 renal, 15.6 µM; with UACC-62 melanoma, 16.9 µM. In addition, the GI50 in the test with HT29 colon is 3.63 µM; in the test on 786-0 renal, 14.6 µM; in the test with T-47D breast it was 12.1 µM; with SF-539 CNS it was 3.18 µM. Moreover, the TGI with UACC-257 melanoma turned out to be 5.62 µM; with RPMI-8226 leukemia, 75.4 µM; in the test with SK-MEL-28 melanoma it was 27.1 µM; in the test on NCI-H460 lung, 21.6 µM; in the test with A498 renal it was 30.5 µM; with UACC-62 melanoma it was 31.4 µM. Moreover, the TGI with HT29 colon is 15.9 µM; with 786-0 renal, 28.4 µM; in the test with T-47D breast it was 27.5 µM; in the test on SF-539 CNS, 11.5 µM.

`COC(=O)C(=O)C(C(=O)C(=O)Nc1nc2ccc(C)cc2s1)c1nc2ccc([N+](=O)[O-])cc2[nH]c1=O` (stereo unspecified): the TGI with UACC-257 melanoma, in the test with RPMI-8226 leukemia, in the test with SK-MEL-28 melanoma, in the test with NCI-H460 lung, with A498 renal and in the test with UACC-62 melanoma was greater than 100 µM in each case. Moreover, the TGI in the test on HT29 colon, in the test on 786-0 renal, in the test on T-47D breast and in the test with SF-539 CNS was greater than 100 µM each time.

As for `CCN1C(=O)N(CC)C2Nn3c(s/c(=C\c4ccccc4Br)c3=O)=NC21` (stereo unspecified), the GI50 with UACC-257 melanoma was 12.9 µM; in the test on RPMI-8226 leukemia, 1.79 µM; with SK-MEL-28 melanoma, 2.23 µM; in the test on NCI-H460 lung, 0.804 µM; with A498 renal, 0.886 µM; in the test on UACC-62 melanoma it was 2.18 µM. The GI50 was 0.558 µM with HT29 colon, 3.18 µM in the test with 786-0 renal, 13.2 µM with T-47D breast and 0.889 µM in the test with SF-539 CNS. Further, the TGI with UACC-257 melanoma was greater than 100 µM; in the test on RPMI-8226 leukemia, 15.2 µM; in the test on SK-MEL-28 melanoma it was 69.6 µM; with NCI-H460 lung, 10.5 µM; in the test on A498 renal it was 4.08 µM; in the test with UACC-62 melanoma it was 31.1 µM. In addition, the TGI in the test on HT29 colon is 5.73 µM; with 786-0 renal, greater than 100 µM; in the test with T-47D breast, greater than 100 µM; in the test with SF-539 CNS, 3.08 µM.

Turning to `C=CC(C1=CC(=O)C(OC)=CC1=O)c1ccccc1` (stereo unspecified), the TGI is 34.8 µM in the test with UACC-257 melanoma; greater than 67.6 µM with RPMI-8226 leukemia; 29.1 µM with SK-MEL-28 melanoma; 36.3 µM with NCI-H460 lung; greater than 100 µM in the test on A498 renal; 29 µM in the test on UACC-62 melanoma. In addition, the TGI stood at 42 µM in the test with HT29 colon, 28.4 µM with 786-0 renal, 8.9 µM in the test on T-47D breast and 29.9 µM in the test with SF-539 CNS.

For the molecule `COc1ccc(C(=O)COC(=O)[C@H](C[Se][Se]C[C@H](NC(=O)c2ccc(Br)cc2F)C(=O)OCC(=O)c2ccc(OC)cc2)NC(=O)c2ccc(Br)cc2F)cc1`, the GI50 in the test with UACC-257 melanoma is 2.25 µM; in the test on RPMI-8226 leukemia, 0.502 µM; in the test on SK-MEL-28 melanoma it was 1.59 µM; with NCI-H460 lung it was 0.353 µM; with A498 renal, 0.896 µM; in the test on UACC-62 melanoma, 1.06 µM. The GI50 in the test on HT29 colon was 0.879 µM; in the test on 786-0 renal, 0.433 µM; in the test on T-47D breast, 1.73 µM; in the test with SF-539 CNS it was 0.321 µM. Moreover, the TGI came to 5.31 µM in the test with UACC-257 melanoma; 5.69 µM in the test on RPMI-8226 leukemia; 5.61 µM in the test with SK-MEL-28 melanoma; 1.31 µM in the test on NCI-H460 lung; 8.84 µM with A498 renal; 2.86 µM with UACC-62 melanoma. Besides, the TGI with HT29 colon worked out at 7.48 µM; in the test with 786-0 renal it was 1.46 µM; in the test on T-47D breast, 6.03 µM; in the test on SF-539 CNS, 0.976 µM.

Consider `N/N=C(\C(=O)Nc1ccc(Cl)cc1Cl)C(c1cnc2ccccc2n1)[N+](=O)[O-]` (stereo unspecified), for which the TGI in the test with UACC-257 melanoma, in the test on RPMI-8226 leukemia, in the test on SK-MEL-28 melanoma, in the test with NCI-H460 lung, with A498 renal and with UACC-62 melanoma was greater than 100 µM in each case. The TGI in the test with HT29 colon, with 786-0 renal, in the test on T-47D breast and in the test with SF-539 CNS was greater than 100 µM each time.

For the molecule `O=CNc1ncn[nH]1`, the TGI with UACC-257 melanoma, with RPMI-8226 leukemia, with SK-MEL-28 melanoma, in the test with NCI-H460 lung, with A498 renal and in the test on UACC-62 melanoma was greater than 100 µM throughout. For the same molecule, the TGI with HT29 colon, with 786-0 renal, in the test on T-47D breast and in the test with SF-539 CNS was greater than 100 µM in each case.

For `c1cc2[nH]ncc2cc1-c1nc2ccc3[nH]ncc3c2c2c1CCCC2`, the GI50 in the test with UACC-257 melanoma was 1.67 µM; with RPMI-8226 leukemia, 0.799 µM; in the test on SK-MEL-28 melanoma it was 1.28 µM; in the test on NCI-H460 lung it was 1.2 µM; in the test with A498 renal, 0.273 µM; with UACC-62 melanoma, 0.425 µM. For the same molecule, the GI50 in the test with HT29 colon is 1.59 µM; in the test with 786-0 renal, 2.1 µM; with T-47D breast, 2.02 µM; in the test with SF-539 CNS it was 1.53 µM. Further, the TGI is 8.21 µM with UACC-257 melanoma; 4.9 µM in the test with RPMI-8226 leukemia; 5.88 µM in the test on SK-MEL-28 melanoma; 10.5 µM in the test on NCI-H460 lung; 1.82 µM in the test with A498 renal; 3.53 µM with UACC-62 melanoma. Also, the TGI in the test on HT29 colon stood at 13.1 µM; with 786-0 renal it was 11.3 µM; with T-47D breast it was 12.3 µM; with SF-539 CNS, 5.4 µM.

As to `CN(C)CCNC(=O)C(C)(C)Oc1ccc(C(=O)c2ccc(Cl)cc2)cc1Cl`, the GI50 in the test with UACC-257 melanoma is 3.11 µM; with RPMI-8226 leukemia it was 3.32 µM; in the test on SK-MEL-28 melanoma it was 2.63 µM; with UACC-62 melanoma it was 2.81 µM; in the test on 786-0 renal, 3.37 µM; in the test on T-47D breast it was 5.87 µM. Besides, the TGI in the test with UACC-257 melanoma is 7.79 µM and 4.84 µM; with RPMI-8226 leukemia, greater than 48.7 µM; in the test on SK-MEL-28 melanoma, 5.14 µM and 3.58 µM; with NCI-H460 lung, 20.4 µM; with A498 renal, 30.7 µM; in the test with UACC-62 melanoma it was 4.29 µM. Moreover, the TGI in the test on HT29 colon was 8.18 µM and 9.21 µM; in the test on 786-0 renal it was 13.6 µM; in the test with T-47D breast it was 24.4 µM; in the test with SF-539 CNS, 22.2 µM.
